According to ChEMBL document CHEMBL4354883, “Design, Synthesis, and Biological Evaluation of HSP90 Inhibitor-SN38 Conjugates for Targeted Drug Accumulation” (J Med Chem, 2020):
Activity calls are given as the source filed them. No cut-off for these calls is given here.

Key:
[1] = system: A549; assay: Induction of cell cycle arrest in human A549 cells assessed as accumulation at G2/M phase after 24 hrs by RNase A/PI-staining based flow cytometric analysis; type: functional
[2] = Drug uptake in human A549 cells assessed as maximum emission peaks at 430 nm at 5 uM by fluorescence emission spectral analysis; type: ADME, cell-based; details: a549, 5 µM
[3] = system: CAPAN-1; assay: Induction of cell cycle arrest in human Capan1 cells assessed as accumulation at G2/M phase after 24 hrs by RNase A/PI-staining based flow cytometric analysis; type: functional
[4] = system: HCT-116; assay: Antiproliferative activity against human HCT116 cells assessed as reduction in cell viability after 72 hrs by SRB assay; type: functional, cell-based; details: HCT-116, 72 h
[5] = system: HCT-116; assay: Downregulation of TOP1 expression in human HCT116 cells after 24 hrs by Western blot analysis; type: functional, cell-based
[6] = system: A549; assay: Downregulation of TOP1 expression in human A549 cells after 24 hrs by Western blot analysis; type: functional, cell-based
[7] = Half life in human liver microsomes at 1 uM preincubated for 5 mins followed by NADPH addition and measured up to 360 mins by LC-MS/MS analysis; type: ADME, Microsome
[8] = target: Heat shock protein HSP 90-alpha (Homo sapiens, UniProt P07900); assay: biochemical
Description: Inhibition of recombinant human full length HSP90 alpha expressed in Escherichia coli cells after 1 hr by fluorescence polarization assay

[9] = Drug uptake in human A549 cells assessed as blue fluorescence at 5 uM after 12 hrs by confocal laser scanning microscopic analysis; type: ADME, cell-based; details: a549, 12 h
[10] = system: CAPAN-1; assay: Antiproliferative activity against human Capan1 cells assessed as reduction in cell viability after 72 hrs by SRB assay; type: functional, cell-based; details: CAPAN-1, 72 h
[11] = system: HCT-116; assay: Antitumor activity against human HCT116 cells xenografted in mouse assessed as tumor weight at 50 mg/kg, iv for 5 consecutive days per week and measured every 3 to 4 days up to 14 days (reference value: 1.73 +/- 0.53 g); type: functional
[12] = Half life in BALB/c mouse at 50 mg/kg, iv after 5 to 24 hrs by LC-MS/MS analysis; type: ADME, organism-based; details: in vivo
[13] = Half life of compound in PBS buffer at pH 6.0 at 50 uM by HPLC analysis; type: physicochemical
[14] = system: A549; assay: Ratio of prodrug release in human A549 cells assessed as increase in 7-ethyl-10-hydroxycamptothecin level at 5 uM after 12 hrs by LC-MS/MS analysis to prodrug release in human A549 cells assessed as increase in 7-ethyl-10-hydroxycamptothecin level at 5 uM after 1 hr by LC-MS/MS analysis; type: ADME, cell-based; details: a549, 5 µM
[15] = Drug uptake in human A549 cells assessed as endocytosis-mediated total cellular drug internalization at 5 uM after 12 hrs by LC-MS/MS analysis relative to SN38; type: ADME, cell-based; details: a549, 12 h
[16] = Intrinsic clearance in human liver microsomes at 1 uM preincubated for 5 mins followed by NADPH addition and measured up to 360 mins by LC-MS/MS analysis; type: ADME, Microsome; details: 6 h
[17] = Apparent volume of distribution at steady state in BALB/c mouse at 50 mg/kg, iv after 5 to 24 hrs by LC-MS/MS analysis; type: ADME, organism-based; details: in vivo, read-out: Vdss(app)
[18] = system: HCT-116; assay: Antitumor activity against human HCT116 cells xenografted in mouse assessed as reduction in tumor growth at 50 mg/kg, iv for 5 consecutive days per week and measured every 3 to 4 days up to 14 days; type: functional, organism-based
[19] = Half life in human plasma at 25 uM by HPLC analysis; type: ADME, cell-free
[20] = system: HCT-116; assay: Antitumor activity against human HCT116 cells xenografted in mouse assessed as reduction in tumor volume at 50 mg/kg, iv for 5 consecutive days per week and measured every 3 to 4 days up to 14 days by microcaliper analysis relative to control; type: functional
[21] = Clearance in BALB/c mouse at 50 mg/kg, iv after 5 to 24 hrs by LC-MS/MS analysis; type: ADME, organism-based; details: in vivo
[22] = system: MIA PaCa-2; assay: Antiproliferative activity against human MIAPaCa2 cells assessed as reduction in cell viability after 72 hrs by SRB assay; type: functional, cell-based; details: MIA PaCa-2, 72 h
[23] = system: A549; assay: Antiproliferative activity against human A549 cells assessed as reduction in cell viability after 72 hrs by SRB assay; type: functional, cell-based; details: A549, 72 h
[24] = Half life of compound in PBS buffer at pH 7.4 at 50 uM by HPLC analysis; type: physicochemical
[25] = Toxicity in mouse xenografted with human HCT116 cells assessed as body weight loss at 50 mg/kg, iv for 5 consecutive days per week and measured every 3 to 4 days up to 14 days relative to control; type: organism-based; details: in vivo
[26] = AUC(0 to infinity) in BALB/c mouse at 50 mg/kg, iv after 5 to 24 hrs by LC-MS/MS analysis; type: ADME, organism-based; design: dose 50 mg/kg, route intravenous, time infinity; details: in vivo
[27] = Drug uptake in human A549 cells assessed as blue shift in absorption spectrum at 5 uM by UV-visible absorption spectral analysis; type: ADME, cell-based; details: a549, 5 µM
[28] = system: HCT-116; assay: Induction of cell cycle arrest in human HCT116 cells assessed as accumulation at G2/M phase after 24 hrs by RNase A/PI-staining based flow cytometric analysis; type: functional
[29] = target: Heat shock protein HSP90 (Homo sapiens, UniProt P07900+P08238); assay: Drug uptake in human A549 cells assessed as eHSP90-mediated drug internalization by measuring blue fluorescence in PBS solution at 5 uM after 1 to 12 hrs by confocal laser scanning microscopic analysis; type: ADME, cell-based; details: a549, 5 µM, TDE = time-dependent effect
[30] = Drug uptake in human A549 cells assessed as endocytosis-mediated total cellular drug internalization at 5 uM after 12 hrs by LC-MS/MS analysis relative to irinotecan; type: ADME, cell-based; details: a549, 12 h
[31] = system: L02; assay: Cytotoxicity agains human HL7702 cells assessed as reduction in cell viability after 72 hrs by SRB assay; type: cell-based; details: L02, 72 h
[32] = Metabolic stability in human liver microsomes assessed as compound remaining at 1 uM preincubated for 5 mins followed by NADPH addition and measured after 60 mins by LC-MS/MS analysis; type: ADME, Microsome; details: read-out: Stability
[33] = Drug uptake in human A549 cells assessed as eHSP90-mediated total cellular drug internalization at 5 uM after 12 hrs by LC-MS/MS analysis; type: ADME, cell-based; details: a549, 12 h
[34] = Half life in mouse plasma at 25 uM by HPLC analysis; type: ADME, cell-free
[35] = system: Mus musculus; assay: In vivo inhibition of topoisomerase 1 in mouse xenografted with human Capan1 cells assessed as increase in phosphorylated KAP1 expression at 50 mg/kg, iv for every 2 days measured at 2 hrs post last dose by Western blot analysis; type: functional, organism-based
[36] = Drug uptake in tumor of mouse xenografted with human HCT116 cells at 50 mg/kg, iv administered as single dose after 1 hr by LC-MS/MS analysis; type: ADME, organism-based, Neoplasm; details: in vivo

Structure (SMILES)	Activity [1]	Drug uptake [2]	Activity [3]	IC50 [4]	inhibition [5]	TOP1 downregulation [6]	half-life at 1 µM [7]	IC50 [8]	Drug uptake [9]	IC50 [10]	Activity [11]	half-life [12]	half-life at 50 µM [13]	Ratio [14]	fold change (FC) [15]	CLH [16]	Vd [17]	Activity [18]	half-life at 25 µM [19]	T/C [20]	other results
CCc1c2c(nc3ccc(OC(=O)N4CCC(NC(=O)c5noc(-c6cc(C(C)C)c(O)cc6O)c5-c5ccc(CN6CCOCC6)cc5)CC4)cc13)-c1cc3c(c(=O)n1C2)COC(=O)[C@]3(O)CC	Dose-dependent effect	Active	Dose-dependent effect	614 nM	Dose-dependent effect	Dose-dependent effect	2.6 h	164 nM	Active	6800 nM	0.47 g	1.72 h	> 24 h	3.7	1.6 to 1.9	4.9 mL/min/kg	0.103 L/kg	Active	> 24 h	33.8%	clearance [21]: 6.91 mL/min/kg; IC50 [22]: 644 nM; IC50 [23]: 1110 nM; half-life at 50 µM [24]: > 24 h; Activity [25]: < 20%; AUC(0-inf) [26]: 172 µg·h/mL; Drug uptake [27]: Active; Activity [28]: Dose-dependent effect; Drug uptake [29]: Tde; fold change (FC) [30]: 2.8 to 3.8; IC50 [31]: 7360 nM; remaining at 1 h, 1 µM [32]: 87%; Drug uptake [33]: Active; half-life at 25 µM [34]: > 24 h
CCc1c2c(nc3ccc(O)cc13)-c1cc3c(c(=O)n1C2)COC(=O)[C@@]3(CC)OC(=O)CNC(=O)c1noc(-c2cc(C(C)C)c(O)cc2O)c1-c1ccc(CN2CCOCC2)cc1	Dose-dependent effect	Active	Dose-dependent effect	22 nM	Dose-dependent effect	Dose-dependent effect	2.1 h	72 nM	Active	36 nM	0.32 g	1.31 h	> 24 h	4.3	1.6 to 1.9	5.7 mL/min/kg	0.101 L/kg	Active	13 h	16.7%	inhibition [35]: Active; clearance [21]: 5.81 mL/min/kg; IC50 [22]: 46 nM; Drug uptake [36]: Not Active; IC50 [23]: 56 nM; half-life at 50 µM [24]: 10 h; Activity [25]: < 20%; AUC(0-inf) [26]: 148 µg·h/mL; Drug uptake [27]: Active; Activity [28]: Dose-dependent effect; Drug uptake [29]: Tde; fold change (FC) [30]: 2.8 to 3.8; IC50 [31]: 6870 nM; remaining at 1 h, 1 µM [32]: 80%; Drug uptake [33]: Active; half-life at 25 µM [34]: 10.5 h
